From ChEMBL document CHEMBL1201862, “PubChem BioAssay data set” (2004)
Calls of active or inactive are those of the source.

Tests used:
Paired box protein Pax-8 = Paired box protein Pax-8 (Homo sapiens, UniProt Q06710); assay: PAX8 transcriptional activity inhibition in RMG-I – RMG-I cells, luciferase, cherry-pick, dose response (AID 687027); assay type: functional, cell-based;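 also: luciferase reporter driven by Pax8 target thyroperoxidase promoter measured by SteadyGlo luminescence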
[1] = non-specific 3'UTR reporter inhibition in Clone20-Shn3RL – cell-based, Renilla luciferase, cherry-picked, counter-screen for Shn3 inhibitor project, dose response (AID 624133); assay type: functional
[2] = target: T1, Histone-lysine N-methyltransferase NSD2 (Homo sapiens, UniProt O96028); assay type: biochemical
T1 sequence (O96028 whole entry): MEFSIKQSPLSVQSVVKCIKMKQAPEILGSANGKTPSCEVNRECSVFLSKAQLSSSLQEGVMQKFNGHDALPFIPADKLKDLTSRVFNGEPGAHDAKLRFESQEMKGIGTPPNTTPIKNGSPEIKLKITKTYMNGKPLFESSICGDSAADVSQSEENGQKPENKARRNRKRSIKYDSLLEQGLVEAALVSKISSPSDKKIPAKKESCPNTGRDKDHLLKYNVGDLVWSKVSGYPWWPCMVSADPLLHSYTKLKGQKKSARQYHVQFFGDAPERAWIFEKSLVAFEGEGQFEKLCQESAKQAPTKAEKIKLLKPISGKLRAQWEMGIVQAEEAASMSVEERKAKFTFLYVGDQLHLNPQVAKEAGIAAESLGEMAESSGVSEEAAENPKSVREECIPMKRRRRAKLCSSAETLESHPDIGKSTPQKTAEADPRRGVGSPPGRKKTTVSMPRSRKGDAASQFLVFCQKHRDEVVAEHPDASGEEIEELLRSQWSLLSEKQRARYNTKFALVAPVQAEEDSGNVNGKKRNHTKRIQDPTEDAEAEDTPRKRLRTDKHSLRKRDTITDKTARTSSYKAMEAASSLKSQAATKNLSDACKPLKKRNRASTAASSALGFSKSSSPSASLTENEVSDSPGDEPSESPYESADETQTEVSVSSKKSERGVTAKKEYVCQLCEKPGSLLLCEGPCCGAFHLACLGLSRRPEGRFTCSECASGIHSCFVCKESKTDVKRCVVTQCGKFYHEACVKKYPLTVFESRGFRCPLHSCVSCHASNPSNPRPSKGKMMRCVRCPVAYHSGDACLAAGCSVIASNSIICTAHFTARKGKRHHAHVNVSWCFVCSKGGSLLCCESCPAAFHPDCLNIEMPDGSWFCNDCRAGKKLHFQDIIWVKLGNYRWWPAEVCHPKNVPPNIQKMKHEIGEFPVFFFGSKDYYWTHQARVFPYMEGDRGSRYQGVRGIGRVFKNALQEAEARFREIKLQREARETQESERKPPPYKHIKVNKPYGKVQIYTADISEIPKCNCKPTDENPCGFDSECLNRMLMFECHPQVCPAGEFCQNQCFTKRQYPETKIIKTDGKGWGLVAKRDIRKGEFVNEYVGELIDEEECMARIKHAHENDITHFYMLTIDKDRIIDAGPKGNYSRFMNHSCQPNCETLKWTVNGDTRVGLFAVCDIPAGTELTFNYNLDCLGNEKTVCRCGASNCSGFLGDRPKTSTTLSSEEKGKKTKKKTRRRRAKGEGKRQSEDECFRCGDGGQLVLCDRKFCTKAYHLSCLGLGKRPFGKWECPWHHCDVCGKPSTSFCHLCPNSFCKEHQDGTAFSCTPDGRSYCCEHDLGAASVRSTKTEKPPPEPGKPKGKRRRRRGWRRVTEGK

[3] = viability of PTEN-deleted HCT116 cells – cell-based, HCT116 PTEN knockout, dose response (AID 1047); assay type: functional;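 also: HCT116 colon tumor cells with PTEN knocked out; cells exposed to compound for 60 hours before readout; potency for loss of cell viability measured by luminescence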
[4] = target: Glucose-6-phosphate 1-dehydrogenase (Homo sapiens, UniProt P11413); assay: inhibition of Homo sapiens G6PD, dose series – biochemical, fluorescence, selectivity assay for P. falciparum G6PD inhibitor project, dose response (AID 504792); assay type: functional
Glucose-6-phosphate 1-dehydrogenase, sequence (P11413 whole entry): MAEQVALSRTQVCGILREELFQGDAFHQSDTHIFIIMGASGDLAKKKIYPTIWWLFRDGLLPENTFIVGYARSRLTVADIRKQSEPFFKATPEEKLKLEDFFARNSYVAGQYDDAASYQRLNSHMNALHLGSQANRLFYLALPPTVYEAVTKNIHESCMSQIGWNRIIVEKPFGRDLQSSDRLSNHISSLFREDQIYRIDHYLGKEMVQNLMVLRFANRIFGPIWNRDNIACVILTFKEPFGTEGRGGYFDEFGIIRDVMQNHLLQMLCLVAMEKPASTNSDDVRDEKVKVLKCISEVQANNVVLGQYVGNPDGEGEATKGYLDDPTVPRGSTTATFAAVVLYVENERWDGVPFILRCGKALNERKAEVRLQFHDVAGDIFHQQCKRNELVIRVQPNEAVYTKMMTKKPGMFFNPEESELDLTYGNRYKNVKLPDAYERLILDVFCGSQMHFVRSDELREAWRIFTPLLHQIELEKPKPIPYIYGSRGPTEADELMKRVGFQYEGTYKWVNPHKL

[5] = target: T2, Sentrin-specific protease 7 (Homo sapiens, UniProt Q9BQF6); assay type: functional;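 also: Luminescence-based dose-response confirmation of ultra-high-throughput screening hits, measuring inhibition of SENP7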
T2 sequence (Q9BQF6 whole entry): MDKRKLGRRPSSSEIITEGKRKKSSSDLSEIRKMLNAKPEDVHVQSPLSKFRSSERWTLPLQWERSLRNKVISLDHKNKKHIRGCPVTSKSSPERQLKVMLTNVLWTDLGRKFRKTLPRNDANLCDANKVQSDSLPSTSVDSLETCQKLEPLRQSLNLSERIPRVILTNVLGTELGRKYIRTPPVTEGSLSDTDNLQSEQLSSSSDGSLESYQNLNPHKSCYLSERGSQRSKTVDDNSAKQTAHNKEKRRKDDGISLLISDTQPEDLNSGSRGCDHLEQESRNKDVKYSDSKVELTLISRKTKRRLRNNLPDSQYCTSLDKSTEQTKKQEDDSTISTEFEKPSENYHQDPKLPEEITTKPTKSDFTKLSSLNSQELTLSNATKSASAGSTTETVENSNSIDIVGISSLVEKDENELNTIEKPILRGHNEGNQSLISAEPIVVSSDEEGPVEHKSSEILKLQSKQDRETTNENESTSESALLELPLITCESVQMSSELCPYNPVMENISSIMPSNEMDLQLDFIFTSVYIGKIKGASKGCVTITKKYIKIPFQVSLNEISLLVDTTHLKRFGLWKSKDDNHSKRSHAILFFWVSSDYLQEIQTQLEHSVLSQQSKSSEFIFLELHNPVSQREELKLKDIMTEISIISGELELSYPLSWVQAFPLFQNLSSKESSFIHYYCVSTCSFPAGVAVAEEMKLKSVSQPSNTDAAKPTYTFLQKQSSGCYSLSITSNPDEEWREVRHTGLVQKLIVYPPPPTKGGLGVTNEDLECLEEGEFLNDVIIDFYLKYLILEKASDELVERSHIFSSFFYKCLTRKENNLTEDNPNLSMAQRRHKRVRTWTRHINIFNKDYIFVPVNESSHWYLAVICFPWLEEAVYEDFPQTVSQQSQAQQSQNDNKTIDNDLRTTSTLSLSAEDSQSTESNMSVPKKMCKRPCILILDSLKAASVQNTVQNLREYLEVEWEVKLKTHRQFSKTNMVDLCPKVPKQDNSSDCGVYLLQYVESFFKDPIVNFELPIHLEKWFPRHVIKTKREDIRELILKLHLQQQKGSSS

[6] = target: T3, Mannose-6-phosphate isomerase (Homo sapiens, UniProt P34949); assay: MPI inhibition at elevated mannose 6-phosphate – biochemical, fluorescence intensity, high mannose 6-phosphate, primary screen (AID 1220)
T3 sequence (P34949 whole entry): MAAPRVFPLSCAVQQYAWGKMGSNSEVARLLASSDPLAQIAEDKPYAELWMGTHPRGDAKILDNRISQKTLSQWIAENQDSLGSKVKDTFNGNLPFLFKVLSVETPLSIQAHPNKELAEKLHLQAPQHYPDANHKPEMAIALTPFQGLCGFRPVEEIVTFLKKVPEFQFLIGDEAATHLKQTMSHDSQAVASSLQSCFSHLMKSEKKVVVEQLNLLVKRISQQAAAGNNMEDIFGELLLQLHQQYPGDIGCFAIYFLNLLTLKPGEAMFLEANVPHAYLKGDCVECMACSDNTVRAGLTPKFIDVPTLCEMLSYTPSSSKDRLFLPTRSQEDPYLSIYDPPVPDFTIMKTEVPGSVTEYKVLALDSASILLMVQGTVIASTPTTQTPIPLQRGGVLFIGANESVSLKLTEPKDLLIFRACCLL

Paired box protein Pax-8, sequence (Q06710 whole entry): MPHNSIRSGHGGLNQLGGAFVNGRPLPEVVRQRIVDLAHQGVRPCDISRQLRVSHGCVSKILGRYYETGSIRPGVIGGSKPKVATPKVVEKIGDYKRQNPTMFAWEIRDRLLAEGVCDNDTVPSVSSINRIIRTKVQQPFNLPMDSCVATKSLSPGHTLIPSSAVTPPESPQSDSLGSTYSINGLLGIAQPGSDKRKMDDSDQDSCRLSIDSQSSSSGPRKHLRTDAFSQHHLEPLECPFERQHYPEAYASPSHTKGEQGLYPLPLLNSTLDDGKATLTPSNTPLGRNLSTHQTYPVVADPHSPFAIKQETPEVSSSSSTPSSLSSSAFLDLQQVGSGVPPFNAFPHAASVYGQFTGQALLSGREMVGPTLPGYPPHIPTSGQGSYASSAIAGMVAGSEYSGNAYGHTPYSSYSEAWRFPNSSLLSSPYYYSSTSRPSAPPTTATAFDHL

| SMILES | AC50 (Paired box protein Pax-8) | AC50 [1] | AC50 [2] | EC50 [3] | IC50 [4] | IC50 [5] | IC50 [6] |
| --- | --- | --- | --- | --- | --- | --- | --- |
| CC(=O)NC(c1ccc2ccccc2c1)c1ccc2cccnc2c1O (stereo not given) | 1.89 µM (active) | 0.51 µM (active) | – | – | – | – | – |
| CCOC(=O)c1c(C)[nH]c2c1-c1ccccc1C(=O)C2=O | 1.05 µM (active) | 1 µM (active) | 1.33 µM (active) | 0.487 µM (active) | – | – | – |
| O=[N+]([O-])c1c(NCCO)cc(Sc2nc3ccccc3s2)c2nonc12 | – | 10.7 µM (active) | – | 11.1 µM (active) | > 80 µM (inactive) | – | – |
| O=C(c1ccccc1)c1coc2c1C(=O)c1ccccc1C2=O | – | – | – | – | – | 12.7 µM (active) | – |
| CCOC(=O)c1c(C)oc2c1c(/C=N/CCC(=O)O)c(O)c1ccccc12 | – | – | 1.87 µM (active) | – | – | – | > 50 µM (not active) |
| COc1ccc2c(c1)CCC(/C=N/c1ccc3c(c1)OCO3)=C2O | – | – | – | – | > 80 µM (inactive) | 13.1 µM (active) | 15.6 µM (active) |
